Test results taken from ChEMBL document CHEMBL3885881, “DrugMatrix”.

Species: Rattus norvegicus
Test: DrugMatrix - Regimen: Daily Repeat
Type: toxicity, organism-based, Sprague-Dawley
Set-up: regimen Daily Repeat, gender Male, age 6-8 weeks
Conditions: in vivo, po, route oral GAVAGE, […]
[1] = 0 mg/kg, 72 h, tissue Blood, dose level Control, time 3 day
[2] = 0 mg/kg, 72 h, tissue Plasma, dose level Control, time 3 day
[3] = 0 mg/kg, 120 h, tissue Blood, dose level Control, time 5 day
[4] = 0 mg/kg, 120 h, tissue Plasma, dose level Control, time 5 day
[5] = 72 h, tissue Blood, dose 6.3 mg/Kg, dose level Low, time 3 day
[6] = 72 h, tissue Plasma, dose 6.3 mg/Kg, dose level Low, time 3 day
[7] = 120 h, tissue Blood, dose 6.3 mg/Kg, dose level Low, time 5 day
[8] = 120 h, tissue Plasma, dose 6.3 mg/Kg, dose level Low, time 5 day

## ZIRCONIUM(IV) CHLORIDE
[1]
  ABSOLUTE BASOPHIL: 0 CELLS/uL
  ABSOLUTE EOSINOPHIL: 13.67 CELLS/uL
  ABSOLUTE LYMPHOCYTE: 10069.5 CELLS/uL
  ABSOLUTE MONOCYTE: 50 CELLS/uL
  ABSOLUTE SEGMENTED NEUTROPHIL: 516.83 CELLS/uL
  BASOPHIL: 0%
  EOSINOPHIL: 0.17%
  ERYTHROCYTE COUNT: 5.44 x10E6/uL
  HEMATOCRIT: 33.88%
  HEMOGLOBIN: 13.23 G/DL
  LEUKOCYTE COUNT: 10.65 x10E3/uL
  LYMPHOCYTE: 94.67%
  MEAN CORPUSCULAR HEMOGLOBIN: 24.37 pg
  MEAN CORPUSCULAR HEMOGLOBIN CONCENTRATION: 39.05 G/DL
  MONOCYTE: 0.67%
  NEUTROPHIL: 4.5%
  NUCLEATED RED BLOOD CELLS: 0.33 /100WBC
  PLATELET COUNT: 414.5 x10E3/uL
[2]
  ALANINE AMINOTRANSFERASE: 72 u/L
  ALKALINE PHOSPHATASE: 375 u/L
  ASPARTATE AMINOTRANSFERASE: 87.5 u/L
  BLOOD UREA NITROGEN: 14 mg/dL
  CARBON DIOXIDE: 27.5 mmol/L
  CHLORIDE: 95.83 MEQ/L
  CHOLESTEROL: 68.5 mg/dL
  CREATINE PHOSPHOKINASE: 284.33 u/L
  CREATININE: 0.16 mg/dL
  LACTATE DEHYDROGENASE: 101.83 u/L
  PHOSPHORUS: 10.33 mg/dL
  POTASSIUM: 5.22 MEQ/L
  TOTAL BILIRUBIN: 0.13 mg/dL
  TOTAL PROTEIN: 5.43 G/DL
  URIC ACID: 0.8 mg/dL
[3]
  ABSOLUTE BASOPHIL: 0 CELLS/uL
  ABSOLUTE EOSINOPHIL: 20.67 CELLS/uL
  ABSOLUTE LYMPHOCYTE: 11518.33 CELLS/uL
  ABSOLUTE MONOCYTE: 47 CELLS/uL
  ABSOLUTE SEGMENTED NEUTROPHIL: 614 CELLS/uL
  BASOPHIL: 0%
  EOSINOPHIL: 0.17%
  ERYTHROCYTE COUNT: 5.61 x10E6/uL
  HEMATOCRIT: 34.25%
  LEUKOCYTE COUNT: 12.2 x10E3/uL
  LYMPHOCYTE: 94.33%
  MEAN CORPUSCULAR HEMOGLOBIN: 23.83 pg
  MEAN CORPUSCULAR HEMOGLOBIN CONCENTRATION: 39.08 G/DL
  MEAN CORPUSCULAR VOLUME: 61.03 fL
  MONOCYTE: 0.33%
  NEUTROPHIL: 5.17%
  NUCLEATED RED BLOOD CELLS: 0 /100WBC
  PLATELET COUNT: 941.83 x10E3/uL
[4]
  ALANINE AMINOTRANSFERASE: 68.83 u/L
  ALKALINE PHOSPHATASE: 492.67 u/L
  ASPARTATE AMINOTRANSFERASE: 83.33 u/L
  BLOOD UREA NITROGEN: 14 mg/dL
  CARBON DIOXIDE: 37 mmol/L
  CHLORIDE: 98.67 MEQ/L
  CHOLESTEROL: 56.5 mg/dL
  CREATINE PHOSPHOKINASE: 167.33 u/L
  CREATININE: 0.17 mg/dL
  GLUCOSE: 157.5 mg/dL
  LACTATE DEHYDROGENASE: 104.83 u/L
  LIPASE: 10 u/L
  PHOSPHORUS: 10.43 mg/dL
  POTASSIUM: 5.46 MEQ/L
  TOTAL BILIRUBIN: 0.17 mg/dL
  TOTAL PROTEIN: 5.72 G/DL
  URIC ACID: 0.85 mg/dL
[5]
  ABSOLUTE BASOPHIL: 0 CELLS/uL
  ABSOLUTE EOSINOPHIL: 0 CELLS/uL
  ABSOLUTE LYMPHOCYTE: 15285.67 CELLS/uL
  ABSOLUTE MONOCYTE: 331 CELLS/uL
  ABSOLUTE SEGMENTED NEUTROPHIL: 1716.67 CELLS/uL
  BASOPHIL: 0%
  EOSINOPHIL: 0%
  ERYTHROCYTE COUNT: 5.71 x10E6/uL
  HEMOGLOBIN: 13.97 G/DL
  LEUKOCYTE COUNT: 17.33 x10E3/uL
  LYMPHOCYTE: 88%
  MEAN CORPUSCULAR HEMOGLOBIN CONCENTRATION: 38.27 G/DL
  MONOCYTE: 2%
  NEUTROPHIL: 10%
  NUCLEATED RED BLOOD CELLS: 0 /100WBC
  PLATELET COUNT: 1101 x10E3/uL
[6]
  ALANINE AMINOTRANSFERASE: 74.67 u/L
  ALKALINE PHOSPHATASE: 510.33 u/L
  ASPARTATE AMINOTRANSFERASE: 87.33 u/L
  BLOOD UREA NITROGEN: 14.33 mg/dL
  CARBON DIOXIDE: 27 mmol/L
  CHOLESTEROL: 56.33 mg/dL
  CREATINE PHOSPHOKINASE: 244 u/L
  CREATININE: 0.15 mg/dL
  GLUCOSE: 186.67 mg/dL
  LACTATE DEHYDROGENASE: 186 u/L
  PHOSPHORUS: 12.53 mg/dL
  POTASSIUM: 5.75 MEQ/L
  TOTAL BILIRUBIN: 0.1 mg/dL
[7]
  ABSOLUTE BASOPHIL: 0 CELLS/uL
  ABSOLUTE EOSINOPHIL: 0 CELLS/uL
  ABSOLUTE LYMPHOCYTE: 13034.67 CELLS/uL
  ABSOLUTE MONOCYTE: 344.67 CELLS/uL
  ABSOLUTE SEGMENTED NEUTROPHIL: 1154 CELLS/uL
  BASOPHIL: 0%
  EOSINOPHIL: 0%
  ERYTHROCYTE COUNT: 6.21 x10E6/uL
  HEMATOCRIT: 38.6%
  HEMOGLOBIN: 14.47 G/DL
  LEUKOCYTE COUNT: 14.53 x10E3/uL
  MEAN CORPUSCULAR HEMOGLOBIN: 23.3 pg
  MEAN CORPUSCULAR HEMOGLOBIN CONCENTRATION: 37.47 G/DL
  NEUTROPHIL: 8%
  NUCLEATED RED BLOOD CELLS: 0 /100WBC
  PLATELET COUNT: 1100.67 x10E3/uL
[8]
  ALANINE AMINOTRANSFERASE: 68.67 u/L
  ALKALINE PHOSPHATASE: 472.33 u/L
  ASPARTATE AMINOTRANSFERASE: 84.33 u/L
  BLOOD UREA NITROGEN: 13.33 mg/dL
  CARBON DIOXIDE: 31.33 mmol/L
  CHOLESTEROL: 55.33 mg/dL
  CREATINE PHOSPHOKINASE: 232 u/L
  CREATININE: 0.14 mg/dL
  LACTATE DEHYDROGENASE: 112.67 u/L
  PHOSPHORUS: 11.63 mg/dL
  POTASSIUM: 6.33 MEQ/L
  TOTAL BILIRUBIN: 0.2 mg/dL
  TOTAL PROTEIN: 5.5 G/DL
